Literature values, collected in US11779012B2, “Compositions and methods for preserving red blood cells and platelets” (RythRx Therapeutics, LLC, priority 2013, dated 2023).

Experiments:
[1] = molecular target: pleckstrin homology (PH) domain of Akt (Homo sapiens, UniProt P31749); details: binding to PH domain of Akt
[2] = after intravenous administration

pleckstrin homology (PH) domain of Akt, sequence (P31749 5-108 limits assumed): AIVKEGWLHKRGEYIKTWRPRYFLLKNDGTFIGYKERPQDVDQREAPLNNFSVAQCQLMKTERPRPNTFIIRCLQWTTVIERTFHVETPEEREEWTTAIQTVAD

CN1N=C(N)c2cn([C@@H]3O[C@H](COP(=O)(O)O)[C@@H](O)[C@H]3O)c3ncnc1c23 [TCNP, ((2R,3S,4R,5R)-5-(3-amino-5-methyl-1,4,5,6,8-pentaazaacenaphthylen-1(5H)-yl)-3,4-dihydroxytetrahydrofuran-2-yl)methyl dihydrogen phosphate]
Kd [1]: 690 nM | half-life (retention of TCNP in human RBC) [2]: 89 h
